Experimental data from BindingDB's records for doi:10.1016/j.bmcl.2010.09.092 (University of New Mexico School of Medicine, 2010).

Assay: Inhibition of human alphaVbeta3 receptor expressed in african green monkey Vero E6 cells assessed as inhibition of SNV infection in cells by immunofluorescent assay

| Compound | EC50 [nM] |
| --- | --- |
| O=C(NCc1cccs1)C(Cc1ccccc1)NS(=O)(=O)c1ccc2nsnc2c1 (racemic) [rac-2-(benzo[c][1,2,5]thiadiazole-5-sulfonamido)-3-phenyl-N-(thiophen-2-ylmethyl)propanamide] | 2.5 |
| O=c1c(C=NCc2ccco2)c(CSc2ccc(Cl)cc2)[nH]n1-c1nc2ccccc2s1 [2-(benzo[d]thiazol-2-yl)-5-((4-chlorophenylthio)methyl)-4-((furan-2-ylmethylimino)methyl)-1H-pyrazol-3(2H)-one] | 1.3 |
| O=C(NCc1ccc2c(c1)OCO2)C(Cc1ccccc1)NS(=O)(=O)c1cccc2cccnc12 (racemic) [rac-N-(benzo[d][1,3]dioxol-5-ylmethyl)-3-phenyl-2-(quinoline-8-sulfonamido)propanamide] | 1.6 |
